According to ChEMBL document CHEMBL4376834, “Discovery of 4H-Chromen-4-one Derivatives as a New Class of Selective Rho Kinase (ROCK) Inhibitors, which Showed Potent Activity in ex Vivo Diabetic Retinopathy Models” (J Med Chem, 2019):

How the values were obtained:
[1] = biological target: Death-associated protein kinase 1 (Homo sapiens, UniProt P53355); assay: Inhibition of recombinant human DAPK1 (1 to 296 residues) using KKLNRTLSFAEPG as substrate incubated 40 mins in presence of [gamma-33ATP] by radiometric scintillation counting analysis
[2] = biological target: Serine/threonine-protein kinase 26 (Homo sapiens, UniProt Q9P289); assay: Inhibition of recombinant human MST4 (4 to 304 residues) using RLGRDKYKTLRQI as substrate measured after 40 mins in presence of [gamma33P]ATP by radiometric scintillation counting analysis
[3] = biological target: Hepatocyte growth factor receptor (Homo sapiens, UniProt P08581, D1228H); assay: Inhibition of recombinant human MET A1209G/V1290L/D1246H triple mutant (974 to end residues) using KKKGQEEEYVFIE as substrate incubated for 40 mins in presence of [gamma-33ATP by radiometric scintillation counting analysis
[4] = biological target: Eukaryotic translation initiation factor 2-alpha kinase 3 (Homo sapiens, UniProt Q9NZJ5); assay: Inhibition of human PEK (536 to end residues) using RSRSRSRSRSRSRSR as substrate measured after 40 mins in presence of [gamma33P]ATP by radiometric scintillation counting analysis
[5] = biological target: Macrophage colony-stimulating factor 1 receptor (Homo sapiens, UniProt P07333); assay: Inhibition of recombinant human FMS (538 to end residues) using KKKSPGEYVNIEF as substrate after 40 mins in presence of [gamma-33ATP] by radiometric scintillation counting analysis
Insulin receptor = Insulin receptor (Homo sapiens, UniProt P06213); assay: Inhibition of human recombinant activated IR (1005 to 1310 residues) using KKSRGDYMTMQIG as substrate after 40 mins by [gamma-33ATP]by radiometric scintillation counting analysis
[6] = biological target: Serine/threonine-protein kinase PRP4 homolog (Homo sapiens, UniProt Q13523); assay: Inhibition of recombinant human PRP4 (663 to end residues) using casein as substrate incubated for 40 mins in presence of [gamma33P]ATP by radiometric scintillation counting analysis
[7] = biological target: Serine/threonine-protein kinase 33 (Homo sapiens, UniProt Q9BYT3); assay: Inhibition of recombinant full-length human STK33 using myelin basic protein as substrate incubated for 40 mins in presence of [gamma33P]ATP by radiometric scintillation counting analysis
Angiopoietin-1 receptor = Angiopoietin-1 receptor (Homo sapiens, UniProt Q02763, Q939H/Q940H); assay: Inhibition of recombinant human TIE2 Q939H/Q940H double mutant (771 to end residues) using poly(Glu, Tyr) 4:1 as substrate incubated for 40 mins in presence of [gamma33P]ATP by radiometric scintillation counting analysis

Measured: IC50

Sequence of Angiopoietin-1 receptor (Q02763 23-1124 Q939H/Q940H limits assumed): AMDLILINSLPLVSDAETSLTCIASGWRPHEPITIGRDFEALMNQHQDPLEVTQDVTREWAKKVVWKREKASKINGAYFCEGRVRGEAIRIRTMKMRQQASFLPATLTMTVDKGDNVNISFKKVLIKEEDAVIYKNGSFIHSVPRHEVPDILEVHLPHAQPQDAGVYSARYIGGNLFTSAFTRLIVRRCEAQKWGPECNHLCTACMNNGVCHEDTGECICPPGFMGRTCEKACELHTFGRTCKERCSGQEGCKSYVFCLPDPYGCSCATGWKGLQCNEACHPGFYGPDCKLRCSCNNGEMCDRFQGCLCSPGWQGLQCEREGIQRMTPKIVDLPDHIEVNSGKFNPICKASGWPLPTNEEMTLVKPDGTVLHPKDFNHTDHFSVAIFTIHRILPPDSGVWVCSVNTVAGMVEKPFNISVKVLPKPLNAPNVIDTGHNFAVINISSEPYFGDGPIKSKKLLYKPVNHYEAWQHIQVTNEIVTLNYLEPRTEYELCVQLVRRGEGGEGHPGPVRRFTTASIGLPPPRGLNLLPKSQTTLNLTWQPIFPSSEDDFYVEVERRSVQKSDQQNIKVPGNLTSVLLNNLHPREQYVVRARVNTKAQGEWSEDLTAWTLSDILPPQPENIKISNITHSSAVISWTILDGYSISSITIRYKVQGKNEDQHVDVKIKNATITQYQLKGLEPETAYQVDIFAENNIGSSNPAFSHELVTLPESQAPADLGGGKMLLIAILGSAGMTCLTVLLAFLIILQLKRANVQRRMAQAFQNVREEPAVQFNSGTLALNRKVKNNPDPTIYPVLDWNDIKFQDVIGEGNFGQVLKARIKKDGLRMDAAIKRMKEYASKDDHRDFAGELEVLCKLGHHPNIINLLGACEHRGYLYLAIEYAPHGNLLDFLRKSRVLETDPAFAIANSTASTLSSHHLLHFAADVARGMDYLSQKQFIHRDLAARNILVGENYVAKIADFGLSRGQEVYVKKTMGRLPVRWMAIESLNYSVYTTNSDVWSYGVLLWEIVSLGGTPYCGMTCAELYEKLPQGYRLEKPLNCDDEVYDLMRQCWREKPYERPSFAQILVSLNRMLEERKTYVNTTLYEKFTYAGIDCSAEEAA
Sequence of Macrophage colony-stimulating factor 1 receptor (P07333 whole entry, the tested form may be a part): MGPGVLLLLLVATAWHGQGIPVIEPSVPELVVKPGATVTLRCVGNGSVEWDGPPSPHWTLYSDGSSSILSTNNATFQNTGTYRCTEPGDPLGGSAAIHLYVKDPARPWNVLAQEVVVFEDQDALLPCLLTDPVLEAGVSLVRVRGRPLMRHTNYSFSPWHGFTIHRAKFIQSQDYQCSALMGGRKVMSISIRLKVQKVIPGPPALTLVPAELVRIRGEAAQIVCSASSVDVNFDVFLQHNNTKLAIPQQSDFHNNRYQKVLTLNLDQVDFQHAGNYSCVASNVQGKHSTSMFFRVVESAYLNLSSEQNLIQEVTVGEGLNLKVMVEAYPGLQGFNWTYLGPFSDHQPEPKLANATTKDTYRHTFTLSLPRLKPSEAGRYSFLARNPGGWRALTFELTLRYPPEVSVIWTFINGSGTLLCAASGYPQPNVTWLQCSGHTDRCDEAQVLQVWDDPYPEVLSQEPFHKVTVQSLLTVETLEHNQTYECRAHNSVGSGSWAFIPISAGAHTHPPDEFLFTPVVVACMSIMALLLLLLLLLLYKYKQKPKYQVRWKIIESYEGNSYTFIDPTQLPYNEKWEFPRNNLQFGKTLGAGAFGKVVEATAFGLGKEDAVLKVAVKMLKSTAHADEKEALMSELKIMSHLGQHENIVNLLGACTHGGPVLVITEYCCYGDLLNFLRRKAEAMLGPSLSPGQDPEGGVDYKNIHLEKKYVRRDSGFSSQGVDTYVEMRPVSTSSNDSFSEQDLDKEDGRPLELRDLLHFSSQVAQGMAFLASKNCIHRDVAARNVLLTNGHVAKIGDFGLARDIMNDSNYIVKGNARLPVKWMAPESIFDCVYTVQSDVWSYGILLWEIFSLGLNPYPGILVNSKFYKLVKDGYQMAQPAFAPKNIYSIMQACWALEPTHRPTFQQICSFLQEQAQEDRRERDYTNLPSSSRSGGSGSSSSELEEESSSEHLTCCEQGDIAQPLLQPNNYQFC
Sequence of Serine/threonine-protein kinase PRP4 homolog (Q13523 whole entry): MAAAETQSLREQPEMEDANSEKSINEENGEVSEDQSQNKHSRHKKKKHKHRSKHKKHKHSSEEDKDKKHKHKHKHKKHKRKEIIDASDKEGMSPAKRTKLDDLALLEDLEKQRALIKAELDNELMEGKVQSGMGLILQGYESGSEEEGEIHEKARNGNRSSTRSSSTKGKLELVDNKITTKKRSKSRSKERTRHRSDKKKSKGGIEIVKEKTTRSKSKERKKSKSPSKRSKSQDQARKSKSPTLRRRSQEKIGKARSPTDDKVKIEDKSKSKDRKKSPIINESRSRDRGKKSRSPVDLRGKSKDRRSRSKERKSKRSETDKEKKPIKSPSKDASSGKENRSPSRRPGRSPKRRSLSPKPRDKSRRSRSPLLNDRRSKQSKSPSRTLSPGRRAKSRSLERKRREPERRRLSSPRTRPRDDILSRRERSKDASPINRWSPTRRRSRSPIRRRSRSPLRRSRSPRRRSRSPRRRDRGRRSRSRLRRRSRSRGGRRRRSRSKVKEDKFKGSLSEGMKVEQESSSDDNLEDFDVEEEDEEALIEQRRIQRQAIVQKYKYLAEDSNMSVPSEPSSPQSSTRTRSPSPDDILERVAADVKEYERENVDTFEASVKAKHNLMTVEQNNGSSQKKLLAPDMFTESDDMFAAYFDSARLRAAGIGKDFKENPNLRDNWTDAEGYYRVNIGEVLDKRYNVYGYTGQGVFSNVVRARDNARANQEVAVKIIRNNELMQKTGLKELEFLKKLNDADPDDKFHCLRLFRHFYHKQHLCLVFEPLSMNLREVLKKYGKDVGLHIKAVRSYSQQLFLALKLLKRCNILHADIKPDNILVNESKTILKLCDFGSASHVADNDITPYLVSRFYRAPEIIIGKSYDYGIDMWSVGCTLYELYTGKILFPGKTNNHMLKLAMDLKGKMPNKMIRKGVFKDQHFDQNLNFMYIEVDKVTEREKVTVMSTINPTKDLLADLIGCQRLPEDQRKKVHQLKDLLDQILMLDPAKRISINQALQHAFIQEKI
Sequence of Hepatocyte growth factor receptor (P08581 25-1390 D1228H limits assumed): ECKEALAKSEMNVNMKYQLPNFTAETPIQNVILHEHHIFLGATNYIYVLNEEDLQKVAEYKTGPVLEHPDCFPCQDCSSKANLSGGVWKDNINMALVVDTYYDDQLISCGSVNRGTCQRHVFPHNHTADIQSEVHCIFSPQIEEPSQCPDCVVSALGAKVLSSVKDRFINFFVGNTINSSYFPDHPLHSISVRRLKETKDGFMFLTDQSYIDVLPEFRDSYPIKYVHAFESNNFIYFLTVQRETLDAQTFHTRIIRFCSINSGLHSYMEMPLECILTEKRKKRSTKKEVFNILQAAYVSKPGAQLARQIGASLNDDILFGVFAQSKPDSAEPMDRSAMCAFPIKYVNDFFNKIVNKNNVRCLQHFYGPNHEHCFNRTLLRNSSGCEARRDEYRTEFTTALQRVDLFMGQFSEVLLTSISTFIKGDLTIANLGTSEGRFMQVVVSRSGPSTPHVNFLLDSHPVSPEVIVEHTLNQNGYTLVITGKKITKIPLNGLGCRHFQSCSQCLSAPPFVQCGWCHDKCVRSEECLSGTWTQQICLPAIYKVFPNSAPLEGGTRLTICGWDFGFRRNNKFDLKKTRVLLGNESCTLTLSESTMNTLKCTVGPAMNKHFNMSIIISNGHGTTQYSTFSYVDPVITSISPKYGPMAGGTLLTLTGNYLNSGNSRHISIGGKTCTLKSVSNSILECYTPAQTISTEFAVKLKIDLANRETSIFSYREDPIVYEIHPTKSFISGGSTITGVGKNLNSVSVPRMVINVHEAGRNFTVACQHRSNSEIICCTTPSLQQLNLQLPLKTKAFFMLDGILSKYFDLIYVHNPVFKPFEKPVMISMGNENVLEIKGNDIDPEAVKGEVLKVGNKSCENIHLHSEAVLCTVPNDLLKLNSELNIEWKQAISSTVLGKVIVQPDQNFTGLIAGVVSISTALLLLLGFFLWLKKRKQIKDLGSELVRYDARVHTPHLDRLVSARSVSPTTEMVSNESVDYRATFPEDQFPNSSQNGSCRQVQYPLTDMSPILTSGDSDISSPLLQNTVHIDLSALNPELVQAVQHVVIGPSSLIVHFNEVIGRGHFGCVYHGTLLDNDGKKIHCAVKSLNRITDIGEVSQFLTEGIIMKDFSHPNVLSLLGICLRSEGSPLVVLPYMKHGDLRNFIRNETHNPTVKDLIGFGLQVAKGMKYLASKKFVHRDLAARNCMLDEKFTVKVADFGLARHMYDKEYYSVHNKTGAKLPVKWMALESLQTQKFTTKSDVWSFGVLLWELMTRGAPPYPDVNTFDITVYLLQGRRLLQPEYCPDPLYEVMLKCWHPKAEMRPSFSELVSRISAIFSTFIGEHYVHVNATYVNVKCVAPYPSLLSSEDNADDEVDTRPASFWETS
Sequence of Serine/threonine-protein kinase 26 (Q9P289 whole entry, the tested form may be a part): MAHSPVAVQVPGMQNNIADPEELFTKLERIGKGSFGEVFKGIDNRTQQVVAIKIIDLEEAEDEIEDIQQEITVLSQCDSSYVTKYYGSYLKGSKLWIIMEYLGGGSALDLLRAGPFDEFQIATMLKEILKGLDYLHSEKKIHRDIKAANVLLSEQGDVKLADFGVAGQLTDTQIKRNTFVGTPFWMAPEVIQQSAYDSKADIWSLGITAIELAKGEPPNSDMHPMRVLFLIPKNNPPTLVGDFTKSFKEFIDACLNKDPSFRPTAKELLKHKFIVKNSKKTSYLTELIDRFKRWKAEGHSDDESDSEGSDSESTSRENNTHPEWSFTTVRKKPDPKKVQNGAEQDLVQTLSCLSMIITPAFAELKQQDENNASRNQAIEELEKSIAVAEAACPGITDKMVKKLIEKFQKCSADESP

CN(C)c1ccc(C(=O)Nc2cccc(NC(=O)COc3ccc4c(=O)ccoc4c3)c2)cc1
> 10 µM: [1] | [2] | [3] | [4] | [5] | Insulin receptor | [6] | [7] | Angiopoietin-1 receptor
